This is an account of results in ChEMBL document CHEMBL1131400, “Synthesis and comparative evaluation of two antiviral agents: beta-L-Fd4C and beta-D-Fd4C” (Bioorg Med Chem Lett, 1998).

In one assay the test system is DLD-1. Kind of assay: In vitro inhibitory activity against growth of HIV infected DLD-1 cell line. The assay is classed as functional, cell-based. The note with it: Homo sapiens.
The test system of a further assay is Hepatitis B virus. As to the kind of experiment: In vitro inhibitory activity against proliferation of HBV viral cell. The assay is classed as functional, organism-based.
For a further assay, the system named is Rat1. As to the kind of experiment: In vitro inhibitory activity against growth of HIV infected Rat-1 cell line. The assay is classed as functional, cell-based.
A further assay has as its system B16. Kind of assay: In vitro inhibitory activity against growth of HIV infected B16 cell line. The settings on record: Mus musculus. The assay is classed as functional, cell-based.
Assay [1] relates to Human immunodeficiency virus. As to the kind of experiment: In vitro inhibitory activity against proliferation of HIV viral cell. The assay is classed as functional, organism-based. The note with it: Human immunodeficiency virus 1.
For assay [2], the system named is CCRF-CEM. As to the kind of experiment: In vitro inhibitory activity against growth of HIV infected CEM cells combined with murine CTLL-2T lymphoblast cell line. The assay is classed as functional, cell-based. The settings on record: Homo sapiens.
For assay [3], the system named is CCRF-CEM. As to the kind of experiment: In vitro inhibitory activity against growth of HIV infected CEM cell line. The assay is classed as functional, cell-based. The note with it: Homo sapiens.
In the next assay the test system is HepG2. Kind of assay: In vitro inhibitory activity against growth of HIV infected HepG2 cell line. The assay is classed as functional, cell-based. The note with it: Homo sapiens.
In a further assay the test system is MT2. As to the kind of experiment: In vitro inhibitory activity against growth of HIV infected MT-2/IIIB cell line. The assay is classed as functional, cell-based. The note with it: Homo sapiens.

Consider `Nc1nc(=O)n([C@H]2C=C[C@@H](CO)O2)cc1F` [DEXELVUCITABINE], for which the IC50 in the assay on DLD-1 was > 200 µM; in the assay with Rat1, > 200 µM; with B16, > 200 µM; with CCRF-CEM [2] it was 127 µM; with CCRF-CEM [3] it was 100 µM; in the assay with HepG2 it was > 200 µM. Moreover, in the assay with MT2, the IC50 came out at 100 µM. For the same compound, the EC50 with Hepatitis B virus is < 0.3 µM; in [1], 0.2 µM.
In the case of `Nc1nc(=O)n([C@@H]2C=C[C@H](CO)O2)cc1F` [ELVUCITABINE], the IC50 with DLD-1 was > 200 µM; in the assay on Rat1 it was > 200 µM; with B16, > 200 µM; in the assay with CCRF-CEM [2] it was 24 µM; in the assay on CCRF-CEM [3], 6.5 µM; in the assay on HepG2 it was > 200 µM. The compound also came in with an IC50 in the assay with MT2 of 9 µM. The compound also registered an EC50 in [1] of 0.2 µM.
